Test results reported in patent US20260263402A1, “SYNERGISTIC COMBINATIONS OF REGULATED NECROSIS INHIBITORS WITH N-ACETYLCYSTEINE” (priority 2022, published 2026).

Key:
[1] = test system: HT-22 cells; test: Cell viability (MTS) of HT22 cells treated with erastin (ferroptosis), neurotoxicity model; type: cell-based, Mouse; conditions: 0.5 μM erastin 24 h
Description: (§1) The SH-SY5Y neuronal cells (Human Neuroblastoma Cell line) and HT-22 cells (Mouse Hippocampal Neuronal Cell line) were maintained in standard DMEM with GlutaMAX medium (GIBCO), supplemented with 10% fetal bovine serum (GIBCO), at 37° C. in presence of 5% CO2.
(§2) SH-SY5Y, LLC-PK1, ARPE-19 and HT22 cells were seeded in 96-well plates at a density of 10 000 or 5000 cells per well respectively, following overnight incubation. Cells were treated with 10 μM (SH-SY5Y cells) or 0.5 μM (HT22 cells) of erastin or 2 μM of RSL3 (LLCPK1) or 10 mM of sodium iodate (ARPE-19 cells) for 24 h.
(§3) Erastin and RSL3 was purchased from Selleck Chemical and sodium iodate from Sigma Aldrich. Cell viability was assessed by MTS assay (CellTiter 96@D AQueous Non-Radioactive Cell Proliferation Assay; Promega, Fitchburg, WI, USA) according to the manufacturer's instructions. This assay is based on the reduction of the 3-(4,5-dimethylthiazol-2-yl)-5-(3-carboxymethoxyphenyl)-2-(4-sulfophenyl)-2H-tetrazolium (MTS) by viable cells to form a colored formazan product. After treatment, cells were incubated 3 h at 37° C., 5% CO2 with MTS. The absorbance was measured using a microplate reader at 490 and 630 nm and the percentage of viability was calculated by dividing the absorbance of testing compound by the absorbance of DMSO treated cells (control).
(§4) Cells (HT-22, SHSY-5Y, LLC-PK1 and ARPE 19) were seeded in a 96-well plate in their respective medium overnight. […] In this approach, the effect of compound alone (EA or EB) or in combination is expressed as a probability (0≤E≤1). […]
wherein EA and EB represent the effects of compound A and compound B respectively, and EAB the combined effect of the combination of A and B (expected effect on histogram). Calculation index CI is calculated as follows: CI=(EA+EB−EA*EB)/EAB wherein CI is synergistic, antagonistic or additive when CI is under, above or equal to 1 respectively [Duarte et al., Current Research in Pharmacology and Drug Discovery, 2022]. […]

[2] = test system: LLC-PK1 cells; test: Cell viability (MTS) of LLC-PK1 cells treated with RSL3; type: cell-based, Pig; conditions: 2 μM RSL3 24 h
Description: The LLC-PK1 cells (Pig Kidney Epithelial cells) were cultured in DMEM/F12(GIBCO), supplemented with 10% fetal bovine serum (GIBCO), at 37° C. in presence of 5% CO2.
as §2, §3
as §4, with “overnight. The next day they were treated with NAC or a derivative thereof including NACA or N-acetylcysteine ethyl ester (compound A), with inhibitor compound (compound B) or with a combination of the two compounds.” for “overnight.”
(§5) wherein EA and EB represent the effects of compound A and compound B respectively, and EAB the combined effect of the combination of A and B (expected effect on histogram). Calculation index CI is calculated as follows: CI=(EA+EB−EA*EB)/EAB wherein CI is synergistic, antagonistic or additive when CI is under, above or equal to 1 respectively [Duarte et al., Current Research in Pharmacology and Drug Discovery, 2022].

[3] = test system: SH-SY5Y cells; test: Cell viability (MTS) of SH-SY5Y cells treated with erastin (ferroptosis), neurotoxicity model; type: cell-based, Human; conditions: 10 μM erastin 24 h
Description: as §1, §2, §3
(§6) Cells (HT-22, SHSY-5Y, LLC-PK1 and ARPE 19) were seeded in a 96-well plate in their respective medium overnight. The next day they were treated with NAC or a derivative thereof including NACA or N-acetylcysteine ethyl ester (compound A), with inhibitor compound (compound B) or with a combination of the two compounds. The analysis of the effects of the combination of the association of compound A (NAC or a derivative thereof including NACA and N-acetylcysteine ethyl ester) with another compound B is based on the independence model of Bliss. In this approach, the effect of compound alone (EA or EB) or in combination is expressed as a probability (0≤E≤1). The combined effect of the compounds is defined by:
as §5
Cell death by ferroptosis was induced by erastin [Dixon et al., Cell, 2012, 149(5), 1060-1072] in both cell lines. Erastin is a well described ferroptosis inducer and also a molecular tool to study neuronal pathologies [Lewerenz et al., Front. Neurosci., 2018, 12: 214].

[4] = test system: mice model of APAP intoxication; test: In vivo mice model of APAP intoxication, plasma ALT; parameters: species or system C57Bl/6J male mice; conditions: for ALT plasma level: 8 h after APAP, APAP only ~3000, control ~100 IU/L
Description: Nine-week-old C57Bl/6J male mice were purchased from Janvier Labs (Le Genest St Isle, France). After one week of acclimatization in the animal house, mice were fasted overnight before experimentation. Acetaminophen (APAP) was purchased from Sigma-Aldrich (A70-85-100 g, batch #SCLF8273) and diluted at 20 mg/mL in PBS (preheated at 45° C.). Acetaminophen intoxication was induced in mice by intraperitoneal (i.p.) injection of APAP (400 mg/kg). One hour after APAP injection, mice were treated with inhibitors by intraperitoneal injection. N-acetylcysteine (NAC, A9165-25 g, Sigma-Aldrich, batch #SLCJ1628), the reference treatment for paracetamol intoxication, was diluted at 40 mg/mL in PBS Tween80 5% and injected via intraperitoneal route at a dose of 200 mg/kg. Compound 7 was diluted at 1 mg/ml or 2 mg/ml in PBS Tween80 5% and injected by intraperitoneal injection with increasing concentrations (2.5, 5 or 10 mg/kg) or in combination with NAC (200 mg/kg). There were two groups of control mice: the first one was injected via i.p. route with PBS Tween80 5% (Tween80 5%) and the second group, treated with APAP, was administered one hour after APAP with PBS Tween80 5% (APAP-Tween80 5%) via i.p.. Mice were slaughtered eight hours after APAP injection. Blood and liver were collected.
Serum alanine aminotransferase (ALT) plasma levels were measured according to the International Federation of Clinical Chemistry and Laboratory Medicine primary reference procedures using an Olympus AU2700 Autoanalyser (Olympus Optical).
Results were expressed as means SEM. Mean differences between two experimental groups were assessed using the non-parametric Mann-Whitney U-test. […] Calculated P values are integrated on histograms and graphs. Significance is shown as follows: $ P<0.05, $$ P<0.01, $$$ P<0.001 and $$$ P<0.0001 (comparison between APAP mice and APAP mice treated with NAC and/or compound 7); * P<0.05, ** P<0.01, *** P<0.001 and **** P<0.0001 (comparison between treated groups).
Nine Groups of Mice were Studied: • Tween80 5%, n=15 • APAP (400 mg/kg)+Tween 80 5%, n=31 • APAP (400 mg/kg)+NAC (200 mg/kg), n=15 • APAP (400 mg/kg)+compound 7 (2.5 mg/kg), n=23 • APAP (400 mg/kg)+compound 7 (5 mg/kg), n=21 • APAP (400 mg/kg)+compound 7 (10 mg/kg), n=21 • APAP (400 mg/kg)+compound 7 (2.5 mg/kg)+(NAC 200 mg/kg), n=9 • APAP (400 mg/kg)+compound 7 (5 mg/kg)+NAC (200 mg/kg), n=9 • APAP (400 mg/kg)+compound 7 (10 mg/kg)+NAC (200 mg/kg), n=13

[5] = test system: ARPE-19 cells; test: Cell viability (MTS) of ARPE-19 cells treated with sodium iodate, model of eye disease; type: cell-based, Human; conditions: 10 mM sodium iodate 24 h
Description: The ARPE-19 cells (Human Retinal pigment epithelial cell line) were cultured in standard DMEM/F12 medium (GIBCO), supplemented with 10% fetal bovine serum (GIBCO), at 37° C. in presence of 5% CO2.
as §2, §3, §6, §5
Age-related macular degeneration, or AMD, is characterized by vision loss caused by degeneration of the central cells of the retina, called the macula. […] One model used to study retinal cell death is that of human ARPE-19 cells, a retinal pigment epithelial cell line, in the presence of sodium iodate (NaIO3, a potent oxidizing agent) [Hanus et al. Cell Death Discov. 2016, 2, 16054][Chan et al., J. Biomed. Sci., 2019, 26:40].

[6] = NAC 200 mg/kg with compound 7 10 mg/kg i.p. one hour after APAP 400 mg/kg

With `Oc1ccc(-c2cc3ccccc3[nH]2)cc1` [Compound 1] as the compound, how does the “effect on viability, combined with NAC (Bliss model)” value (“effect … with NAC (Bliss model)” for short) ([1]; FIG. 7, 5 μM cmpd 1 + 100 μM NAC) read?
Its value is “synergistic effect”.

And the “effect … with NAC (Bliss model)” value ([2]; FIG. 11, 1 μM Compound 1 + 500 μM NAC)?
Its value is “synergistic effect”.

What about the “effect … with NAC (Bliss model)” value ([3]; FIG. 4, 1 μM cmpd 1 + 100 μM NAC) of the same compound?
Its value is “synergistic effect”.

And the “effect on viability, compound alone” value ([3]; FIG. 4, 1 μM cmpd 1 alone)?
Its value is “significant effect”.

And the “effect on viability, combined with N-acetylcysteine ethyl ester (Bliss model)” value ([3]; FIG. 15, 2.5 μM Compound 1 + 100 μM N-acetylcysteine ethyl ester)?
The value was “synergistic effect”.

And the “effect on viability, compound alone” value ([3]; FIG. 15, 2.5 μM Compound 1 alone)?
Its value is “significant effect”.

What does the source list for `Oc1ccc(-c2cc3cccnc3[nH]2)cc1` [Compound 7, sibiriline]?
effect on viability, combined with NAC (Bliss model) ([1]; FIG. 5, 25 μM cmpd 7 + 100 μM NAC): synergistic effect; effect on viability, combined with NAC (Bliss model) ([2]; FIG. 10, 2.5 μM Compound 7 + 500 μM NAC): synergistic effect; effect on viability, combined with N-acetylcysteine ethyl ester (Bliss model) ([3]; FIG. 14, 10 μM Compound 7 + 100 μM N-acetylcysteine ethyl ester): synergistic effect; effect on viability, compound alone ([3]; FIG. 14, 10 μM Compound 7 alone): significant effect; protective effect against APAP toxicity, combination versus NAC alone or compound 7 alone ([4]; NAC 200 mg/kg in combination with compound 7 2.5, 5 or 10 mg/kg i.p., FIG. 9a-c): better and synergistic protective effect; protection against APAP toxicity [4, 6]: almost complete protection; ALT plasma level [4, 6]: ~ 200 IU/L; ALT plasma level ([4]; compound 7 10 mg/kg i.p. one hour after APAP 400 mg/kg i.p.): ~ 1000 IU/L; effect on ALT plasma levels, compound alone ([4]; compound 7 2.5, 5 or 10 mg/kg i.p. one hour after APAP 400 mg/kg, maximum effect at 10 mg/kg): reducing ALT plasma levels in a dose-dependent manner

With `Oc1ccc(-c2cc3ccc(Cl)nc3[nH]2)cc1` [Compound 37] as the compound, how does the “effect … with NAC (Bliss model)” value ([1]; FIG. 6, 50 μM cmpd 37 + 100 μM NAC) read?
The value was “synergistic effect”.

`NCCOCCOc1ccc(-c2cc3cccnc3[nH]2)cc1` [Compound 45] was tested. Which “effect … with NAC (Bliss model)” value ([5]; FIG. 1, 10 μM cmpd 45 + 100 μM NAC) did it give?
Its value is “synergistic effect”.

What about the “effect on viability, compound alone” value ([5]; FIG. 1, 10 μM cmpd 45 alone) of the same compound?
The value was “significant effect”.

With `COc1cc(O)c2c(c1)OC(O)(c1ccc(OCc3ccccc3)cc1)CC2=O` (stereo not shown) [Compound 46] as the compound, how does the “effect … with NAC (Bliss model)” value ([5]; FIG. 2, 5 μM cmpd 46 + 50 μM NAC) read?
Its value is “synergistic effect”.

And the “effect on viability, compound alone” value ([5]; FIG. 2, 5 μM cmpd 46 alone)?
Its value is “significant effect”.

What about the “effect on viability, combined with NACA (Bliss model)” value ([5]; FIG. 13, 10 μM cmpd 46 + 125 μM NACA) of the same compound?
The value was “synergistic effect”.

What about the “effect on viability, compound alone” value ([5]; FIG. 13, 10 μM cmpd 46 alone) of the same compound?
The value was “significant effect”.

And the “effect … with NAC (Bliss model)” value ([2]; FIG. 12, 25 μM Compound 46 + 500 μM NAC)?
Its value is “synergistic effect”.

What about the “effect … with NAC (Bliss model)” value ([3]; FIG. 3, 25 μM cmpd 46 + 100 μM NAC) of the same compound?
The value was “synergistic effect”.

And the “effect on viability, compound alone” value ([3]; FIG. 3, 25 μM cmpd 46 alone)?
Its value is “significant effect”.

And the “effect on viability, combined with N-acetylcysteine ethyl ester (Bliss model)” value ([3]; FIG. 16, 25 μM Compound 46 + 100 μM N-acetylcysteine ethyl ester)?
Its value is “synergistic effect”.

And the “effect on viability, compound alone” value ([3]; FIG. 16, 25 μM Compound 46 alone)?
The value was “significant effect”.

With `CC(=O)N[C@@H](CS)C(=O)O` [NAC, N-acetylcysteine] as the compound, how does the ALT plasma level ([4]; NAC 200 mg/kg i.p. one hour after APAP 400 mg/kg i.p.) read?
The ALT plasma level was ~ 1300 IU/L.
